Source: PubChem BioAssay AID248 (DTP/NCI, 2004)
Values joined by “and” are separate entries in the source; they are usually repeats but may differ in a detail not shown here. Identical values can stand only once. Inconclusive results and toxic doses are left out. Rule as the data show it: active = T/C of 150% or more; inactive = T/C below 125%.

Tested on: L1210 leukemia ip in BDF1 mice, survival T/C
Assay: NCI In Vivo Anticancer Drug Screen. Data for tumor model L1210 Leukemia (intraperitoneal) in B6D2F1 (BDF1) mice
Conditions: endpoint: mean survival time, higher = longer survival
Procedure, shortened: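 Survival endpoint. Drug-treated group vs vehicle group, expressed as T divided by C. Tumor passaged by transplantation.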

[1] = dose: 100.0 mg/kg/injection, schedule: Q04DX003 (ip), vehicle: saline
[2] = dose: 200.0 mg/kg/injection, schedule: Q04DX003 (ip), vehicle: saline
[3] = dose: 400.0 mg/kg/injection, schedule: Q04DX003 (ip), vehicle: saline
[4] = dose: 100.0 mg/kg/injection, schedule: Q04DX003 (ip), vehicle: Klucel (hydroxypropylcellulose) (HPC)
[5] = dose: 200.0 mg/kg/injection, schedule: Q04DX003 (ip), vehicle: Klucel (hydroxypropylcellulose) (HPC)
[6] = dose: 400.0 mg/kg/injection, schedule: Q04DX003 (ip), vehicle: Klucel (hydroxypropylcellulose) (HPC)
[7] = dose: 100.0 mg/kg/injection, schedule: Q04DX003 (ip), vehicle: saline with Tween-80
[8] = dose: 25.0 mg/kg/injection, schedule: Q01DX009 (ip), vehicle: saline with Tween-80
[9] = dose: 50.0 mg/kg/injection, schedule: Q01DX009 (ip), vehicle: saline with Tween-80
[10] = dose: 100.0 mg/kg/injection, schedule: Q01DX001 (ip), vehicle: Klucel (hydroxypropylcellulose) (HPC)
[11] = dose: 100.0 mg/kg/injection, schedule: Q01DX009 (ip), vehicle: saline with Tween-80
[12] = dose: 100.0 mg/kg/injection, schedule: Q04DX002 (ip), vehicle: Klucel (hydroxypropylcellulose) (HPC)
[13] = dose: 200.0 mg/kg/injection, schedule: Q04DX002 (ip), vehicle: Klucel (hydroxypropylcellulose) (HPC)
[14] = dose: 400.0 mg/kg/injection, schedule: Q04DX002 (ip), vehicle: Klucel (hydroxypropylcellulose) (HPC)
[15] = dose: 200.0 mg/kg/injection, schedule: Q01DX001 (ip), vehicle: Klucel (hydroxypropylcellulose) (HPC)
[16] = dose: 100.0 mg/kg/injection, schedule: Q01DX009 (ip), vehicle: Klucel (hydroxypropylcellulose) (HPC)
[17] = dose: 200.0 mg/kg/injection, schedule: Q01DX009 (ip), vehicle: Klucel (hydroxypropylcellulose) (HPC)
[18] = dose: 400.0 mg/kg/injection, schedule: Q01DX009 (ip), vehicle: Klucel (hydroxypropylcellulose) (HPC)

Measured: T/C

CC(=O)CP(=O)(O)O
inactive: dose: 100.0 mg/kg/injection, schedule: Q04DX002 (ip), vehicle: saline 97 % of control | dose: 200.0 mg/kg/injection, schedule: Q04DX002 (ip), vehicle: saline 94 % of control | dose: 400.0 mg/kg/injection, schedule: Q04DX002 (ip), vehicle: saline 94 % of control

c1cc[c]([Sb]([S]c2ncnc3nc[nH]c23)[c]2ccccc2)cc1
inactive: dose: 5.0 mg/kg/injection, schedule: Q01DX001 (ip), vehicle: other 97 % of control | dose: 10.0 mg/kg/injection, schedule: Q01DX001 (ip), vehicle: other 116 % of control

O=S(=O)(O)SCCNC1CCC(NCCSS(=O)(=O)O)CC1 (configuration not stated)
inactive: [1] 105 % of control | [2] 116 % of control | [3] 114 % of control

Cc1ccc(S(=O)(=O)NC(=O)NCc2ccco2)cc1
inactive: [4] 94 % of control | [5] 86 % of control | [6] 89 % of control

O=C(NCCc1nc(-c2nc(C(=O)O)cs2)cs1)c1ccccc1
inactive: [7] 103 % of control | dose: 200.0 mg/kg/injection, schedule: Q04DX003 (ip), vehicle: saline with Tween-80 94 % of control | dose: 400.0 mg/kg/injection, schedule: Q04DX003 (ip), vehicle: saline with Tween-80 92 % of control

CN(C)CCCNC(=O)C1C(c2ccccc2)C1c1ccccc1 (configuration not stated)
inactive: dose: 12.5 mg/kg/injection, schedule: Q04DX002 (ip), vehicle: saline with Tween-80 102 % of control | dose: 25.0 mg/kg/injection, schedule: Q04DX002 (ip), vehicle: saline with Tween-80 102 % of control | dose: 50.0 mg/kg/injection, schedule: Q04DX002 (ip), vehicle: saline with Tween-80 91 % of control

O=C(Nc1ccc(C2=NCCCCN2)cc1)c1ccc(C(=O)Nc2ccc(C3=NCCCCN3)cc2)c(Cl)c1
inactive: dose: 0.12 mg/kg/injection, schedule: Q01DX015 (ip), vehicle: water 101 % of control | dose: 0.25 mg/kg/injection, schedule: Q01DX015 (ip), vehicle: water 101 % of control | dose: 0.5 mg/kg/injection, schedule: Q01DX015 (ip), vehicle: water 100 % of control and 101 % of control | dose: 0.75 mg/kg/injection, schedule: Q01DX015 (ip), vehicle: water 103 % of control

O=C1NCCN1c1cccc([N+](=O)[O-])c1
inactive: [8] 108 % of control | [9] 103 % of control | [10] 96 % of control | [11] 98 % of control

O=C(Nc1cccc(Cl)c1)Oc1cccc2c1CCC2
inactive: dose: 100.0 mg/kg/injection, schedule: Q04DX002 (sc), vehicle: olive oil, sesame oil, peanut oil 97 % of control | dose: 200.0 mg/kg/injection, schedule: Q04DX002 (sc), vehicle: olive oil, sesame oil, peanut oil 94 % of control | dose: 400.0 mg/kg/injection, schedule: Q04DX002 (sc), vehicle: olive oil, sesame oil, peanut oil 102 % of control

CCCCCCCCCCCCCCCC(=O)Nc1ccc(C(C)=O)cc1
inactive: [4] 91 % of control | [5] 88 % of control | [6] 95 % of control

CCCC/C=C/C(C)O (configuration not stated)
inactive: [9] 101 % of control | [11] 105 % of control | dose: 200.0 mg/kg/injection, schedule: Q01DX009 (ip), vehicle: saline with Tween-80 97 % of control

CC(=O)OC1CCC2(C)C(=CCC3C2CCC2(C)C3CC3C(c4ccccc4Cl)=NN(c4ccccc4)C32C#N)C1 (configuration not stated)
inactive: [12] 95 % of control | [13] 95 % of control | [14] 95 % of control

NC(=O)NCc1ccc(CNC(N)=O)cc1
inactive: dose: 100.0 mg/kg/injection, schedule: Q04DX002 (ip), vehicle: saline with Tween-80 98 % of control | dose: 200.0 mg/kg/injection, schedule: Q04DX002 (ip), vehicle: saline with Tween-80 98 % of control | dose: 400.0 mg/kg/injection, schedule: Q04DX002 (ip), vehicle: saline with Tween-80 115 % of control

COC1OC(COC(c2ccccc2)(c2ccccc2)c2ccccc2)C(O)C(O)C1NC(C)=O (configuration not stated)
inactive: [10] 96 % of control | [15] 96 % of control | dose: 400.0 mg/kg/injection, schedule: Q01DX001 (ip), vehicle: Klucel (hydroxypropylcellulose) (HPC) 101 % of control

CCCCCCCCCCCCCCCC(=O)NNC(C)C
inactive: dose: 25.0 mg/kg/injection, schedule: Q01DX009 (ip), vehicle: Klucel (hydroxypropylcellulose) (HPC) 94 % of control | dose: 25.0 mg/kg/injection, schedule: Q04DX003 (ip), vehicle: Klucel (hydroxypropylcellulose) (HPC) 94 % of control | dose: 50.0 mg/kg/injection, schedule: Q01DX009 (ip), vehicle: Klucel (hydroxypropylcellulose) (HPC) 95 % of control | dose: 50.0 mg/kg/injection, schedule: Q04DX003 (ip), vehicle: Klucel (hydroxypropylcellulose) (HPC) 91 % of control | [16] 86 % of control | [4] 105 % of control | [17] 91 % of control | [5] 89 % of control | [18] 92 % of control | [6] 89 % of control

CN(C)C1CS(=O)(=O)C1C1CS(=O)(=O)C1 (configuration not stated)
inactive: [12] 89 % of control | [13] 86 % of control | [14] 96 % of control

COc1cc2cc[n+](C)c(Cc3ccccc3)c2cc1OC
inactive: [8] 111 % of control | dose: 25.0 mg/kg/injection, schedule: Q04DX003 (ip), vehicle: saline with Tween-80 105 % of control | [9] 107 % of control | dose: 50.0 mg/kg/injection, schedule: Q04DX003 (ip), vehicle: saline with Tween-80 103 % of control | [7] 96 % of control

Nc1n[nH]c(C(=O)O)n1
inactive: [16] 98 % of control | [4] 107 % of control | [17] 107 % of control | [5] 93 % of control | [18] 105 % of control | [6] 93 % of control

Nc1c2c(nc3ccccc13)CCCC2
inactive: dose: 0.78 mg/kg/injection, schedule: Q04DX003 (ip), vehicle: saline 101 % of control | dose: 1.56 mg/kg/injection, schedule: Q01DX009 (ip), vehicle: saline 98 % of control | dose: 1.56 mg/kg/injection, schedule: Q04DX003 (ip), vehicle: saline 93 % of control | dose: 3.12 mg/kg/injection, schedule: Q01DX009 (ip), vehicle: saline 93 % of control | dose: 3.12 mg/kg/injection, schedule: Q04DX003 (ip), vehicle: saline 104 % of control | dose: 6.25 mg/kg/injection, schedule: Q04DX003 (ip), vehicle: saline 96 % of control | dose: 12.5 mg/kg/injection, schedule: Q04DX003 (ip), vehicle: saline 95 % of control

NCCNCCNCCN1CC1
inactive: dose: 10.0 mg/kg/injection, schedule: Q04DX002 (ip), vehicle: saline 97 % of control | dose: 20.0 mg/kg/injection, schedule: Q04DX002 (ip), vehicle: saline 97 % of control

COC(=O)c1cc(SC)nc(SC)n1
inactive: [4] 90 % of control | [5] 111 % of control | [6] 101 % of control

CCOC(=O)c1cc(OC(C)=O)c2c(ccc3cc(OC)ccc32)c1CC
inactive: dose: 100.0 mg/kg/injection, schedule: Q01DX009 (ip), vehicle: saline 91 % of control | [1] 93 % of control | [2] 96 % of control | dose: 400.0 mg/kg/injection, schedule: Q01DX009 (ip), vehicle: saline 91 % of control | [3] 91 % of control

CCN(CC)C(=O)c1cncc(-c2ccccc2)c1
inactive: [10] 97 % of control | [15] 98 % of control

O=C(O)c1cc(Cl)cc(F)c1Cl
inactive: [12] 101 % of control | [13] 105 % of control | [14] 105 % of control

O=C(/C=C/c1ccccc1)C(Cl)C(Cl)c1ccccc1 (configuration not stated)
inactive: dose: 50.0 mg/kg/injection, schedule: Q01DX009 (sc), vehicle: olive oil, sesame oil, peanut oil 101 % of control | dose: 100.0 mg/kg/injection, schedule: Q01DX009 (sc), vehicle: olive oil, sesame oil, peanut oil 101 % of control | dose: 200.0 mg/kg/injection, schedule: Q01DX009 (sc), vehicle: olive oil, sesame oil, peanut oil 97 % of control
